Reference: patent publication EP1044000B1, “COMBINATION THERAPY FOR THE TREATMENT OF AIDS” (MERCK & CO., INC., priority 1997, dated 1999)

Test system: wild-type HIV-1
Experiment: Cell Spread Assay (described in US 5,646,148)
Format: cell-based
Details: against wild-type HIV-1

CC(C)(C)NC(=O)[C@@H]1CN(Cc2cccnc2)CCN1C[C@@H](O)C[C@@H](Cc1ccccc1)C(=O)N[C@H]1c2ccccc2C[C@H]1O [Indinavir, N-(2(R)-hydroxy-1(S)-indanyl)-2(R)-phenylmethyl-4-(S)-hydroxy-5-(1-(4-(3-pyridylmethyl)-2(S)-N'-(t-butylcarboxamido)-piperazinyl))-pentaneamide]
CIC95: 50 nM
